What was measured:
Acute toxicity in mice = details: mouse, in vivo
Excerpt: The acute toxicities of the KA-6606 I, II, III and IV of this invention determined by using mice are as follows.

Solubility = format: physicochemical
Stability to pH = format: physicochemical
[1] = in chloroform, ethyl acetate, diethyl ether, hexane and petroleum ether

COC1CC(N)C(OC2OC(C(C)N)CCC2N)C(O)C1N(C)C(=O)CNC=O (centres unmarked) [KA-6606 IV]
LD50 (Acute toxicity in mice; iv.): > 200 mg/kg
LD50 (Acute toxicity in mice; sc.): > 800 mg/kg
Solubility (Solubility; [1]): insoluble
Solubility (Solubility; in ethanol): slightly soluble
Solubility (Solubility; in methanol): easily soluble
Solubility (Solubility; in water): Very readily soluble
Stability (Stability to pH; in basicity and strong acidity): gradually decomposed and inactivated
Stability (Stability to pH; pH of 3 to 8): Stable

COC1CC(N)C(OC2OC(C(C)N)CCC2N)C(O)C1N(C)C(=O)CNC(N)=O (centres unmarked) [KA-6606 III]
LD50 (Acute toxicity in mice; iv.): > 200 mg/kg
LD50 (Acute toxicity in mice; sc.): > 800 mg/kg
Solubility (Solubility; [1]): insoluble
Solubility (Solubility; in ethanol): slightly soluble
Solubility (Solubility; in methanol): easily soluble
Solubility (Solubility; in water): Very readily soluble
Stability (Stability to pH; in basicity and strong acidity): gradually decomposed and inactivated
Stability (Stability to pH; pH of 3 to 8): Stable

CNC1C(OC)CC(N)C(OC2OC(C(C)N)CCC2N)C1O (centres unmarked) [KA-6606 II]
LD50 (Acute toxicity in mice; iv.): > 400 mg/kg
LD50 (Acute toxicity in mice; sc.): > 1000 mg/kg
Solubility (Solubility; [1]): insoluble
Solubility (Solubility; in ethanol): slightly soluble
Solubility (Solubility; in methanol): easily soluble
Solubility (Solubility; in water): Very readily soluble
Stability (Stability to pH; in strong acidity): gradually decomposed and inactivated
Stability (Stability to pH; pH of at least 2): Stable

COC1CC(N)C(OC2OC(C(C)N)CCC2N)C(O)C1N(C)C(=O)CN (centres unmarked) [KA-6606 I]
LD50 (Acute toxicity in mice; iv.): 50 to 100 mg/kg
LD50 (Acute toxicity in mice; sc.): 200 to 400 mg/kg
Solubility (Solubility; [1]): Insoluble
Solubility (Solubility; in ethanol): slightly soluble
Solubility (Solubility; in methanol): Easily soluble
Solubility (Solubility; in water): Very readily soluble
Stability (Stability to pH; in basicity and strong acidity): gradually decomposed and inactivated
Stability (Stability to pH; pH of 3 to 8): Stable
